# How the values were obtained:
# Experiment in all cases: Test C postemergence
# Type in all cases: in vivo
# [1] = test system: giant foxtail (Setaria faberii); settings: Setaria faberi, post-emergence, 336 h, Postemergence, scale 0 to 100, read-out: Plant response rating, Foxtail, Giant
# [2] = test system: blackgrass (Alopecurus myosuroides); settings: Alopecurus myosuroides, post-emergence, 336 h, Postemergence, scale 0 to 100, read-out: Plant response rating, Blackgrass
# [3] = test system: oilseed rape (Brassica napus); settings: Brassica napus, post-emergence, Postemergence, scale 0 to 100, read-out: Plant response rating, Oilseed Rape
# [4] = test system: barnyardgrass (Echinochloa crus-galli); settings: Echinochloa crus-galli, post-emergence, Postemergence, scale 0 to 100, read-out: Plant response rating, Barnyardgrass
# [5] = test system: pigweed (Amaranthus retroflexus); settings: Amaranthus retroflexus, post-emergence, 336 h, Postemergence, scale 0 to 100, read-out: Plant response rating, Pigweed
# [6] = test system: chickweed (common chickweed, Stellaria media); settings: Stellaria media, post-emergence, Postemergence, scale 0 to 100, read-out: Plant response rating, Chickweed
# [7] = test system: ragweed (common ragweed, Ambrosia elatior); settings: Ambrosia artemisiifolia, post-emergence, 336 h, Postemergence, scale 0 to 100, read-out: Plant response rating, Ragweed
# [8] = test system: yellow nutsedge (Cyperus esculentus); settings: Cyperus, post-emergence, 336 h, Postemergence, scale 0 to 100, read-out: Plant response rating, Nutsedge, Yellow
# [9] = test system: velvetleaf (Abutilon theophrasti); settings: Abutilon theophrasti, post-emergence, Postemergence, scale 0 to 100, read-out: Plant response rating, Velvetleaf
# [10] = test system: lambsquarters (Chenopodium album); settings: Chenopodium album, post-emergence, 336 h, Postemergence, scale 0 to 100, read-out: Plant response rating, Lambsquarters
# [11] = test system: winter wheat (Triticum aestivum); settings: Triticum aestivum, post-emergence, 336 h, Postemergence, scale 0 to 100, read-out: Plant response rating, Wheat
# [12] = test system: large (Lg) crabgrass (Digitaria sanguinalis); settings: Digitaria sanguinalis, post-emergence, 336 h, Postemergence, scale 0 to 100, read-out: Plant response rating, Crabgrass, Large
# corn (Zea mays) = settings: Zea mays, post-emergence, 336 h, Postemergence, scale 0 to 100
# [13] = test system: galium (catchweed bedstraw, Galium aparine); settings: Galium, post-emergence, 336 h, Postemergence, scale 0 to 100, read-out: Plant response rating, Galium
# [14] = test system: johnsongrass (Sorghum halepense); settings: Sorghum halepense, post-emergence, 336 h, Postemergence, scale 0 to 100, read-out: Plant response rating, Johnsongrass
# [15] = test system: Italian ryegrass (Lolium multiflorum); settings: Lolium multiflorum, post-emergence, 336 h, Postemergence, scale 0 to 100, read-out: Plant response rating, Ryegrass, Italian
# soybean (Glycine max) = settings: Glycine max, post-emergence, Postemergence, scale 0 to 100, read-out: Plant response rating, Soybean
# [16] = test system: morningglory (Ipomoea coccinea); settings: Ipomoea, post-emergence, 336 h, Postemergence, scale 0 to 100, read-out: Plant response rating, Morningglory
compound,measurement,setting,value
"N#Cc1cccc(Oc2ncc(Cl)cn2)c1Oc1ccc(Cl)cn1 [Compound 16, 2-[(5-chloro-2-pyridinyl)oxy]-3-[(5-chloro-2-pyrimidinyl)oxy]benzonitrile]",pest or weed control at 16 g/ha,[1]; 16 g ai/ha,10%
same,pest or weed control at 31 g/ha,[1]; 31 g ai/ha,15%
same,pest or weed control at 62 g/ha,[1]; 62 g ai/ha,20%
same,pest or weed control at 125 g/ha,[1]; 125 g ai/ha,35%
same,pest or weed control at 16 g/ha,[2]; 16 g ai/ha,5%
same,pest or weed control at 31 g/ha,[2]; 31 g ai/ha,5%
same,pest or weed control at 62 g/ha,[2]; 62 g ai/ha,5%
same,pest or weed control at 125 g/ha,[2]; 125 g ai/ha,10%
same,plant injury at 31 g/ha,[3]; 31 g ai/ha,70%
same,plant injury at 62 g/ha,[3]; 62 g ai/ha,80%
same,plant injury at 125 g/ha,[3]; 125 g ai/ha,50%
same,pest or weed control at 16 g/ha,[4]; 16 g ai/ha,10%
same,pest or weed control at 31 g/ha,[4]; 31 g ai/ha,15%
same,pest or weed control at 62 g/ha,[4]; 62 g ai/ha,15%
same,pest or weed control at 125 g/ha,[4]; 125 g ai/ha,20%
same,pest or weed control at 31 g/ha,[5]; 31 g ai/ha,80%
same,pest or weed control at 62 g/ha,[5]; 62 g ai/ha,85%
same,pest or weed control at 125 g/ha,[5]; 125 g ai/ha,100%
same,pest or weed control at 16 g/ha,[6]; 16 g ai/ha,25%
same,pest or weed control at 31 g/ha,[6]; 31 g ai/ha,60%
same,pest or weed control at 62 g/ha,[6]; 62 g ai/ha,80%
same,pest or weed control at 125 g/ha,[6]; 125 g ai/ha,80%
same,pest or weed control at 31 g/ha,[7]; 31 g ai/ha,60%
same,pest or weed control at 62 g/ha,[7]; 62 g ai/ha,50%
same,pest or weed control at 125 g/ha,[7]; 125 g ai/ha,70%
same,pest or weed control at 31 g/ha,[8]; 31 g ai/ha,10%
same,pest or weed control at 62 g/ha,[8]; 62 g ai/ha,10%
same,pest or weed control at 125 g/ha,[8]; 125 g ai/ha,15%
same,pest or weed control at 31 g/ha,[9]; 31 g ai/ha,65%
same,pest or weed control at 62 g/ha,[9]; 62 g ai/ha,60%
same,pest or weed control at 125 g/ha,[9]; 125 g ai/ha,70%
same,pest or weed control at 16 g/ha,[10]; 16 g ai/ha,65%
same,pest or weed control at 31 g/ha,[10]; 31 g ai/ha,80%
same,pest or weed control at 62 g/ha,[10]; 62 g ai/ha,75%
same,pest or weed control at 125 g/ha,[10]; 125 g ai/ha,90%
same,plant injury at 31 g/ha,[11]; 31 g ai/ha,0%
same,plant injury at 62 g/ha,[11]; 62 g ai/ha,5%
same,plant injury at 125 g/ha,[11]; 125 g ai/ha,0%
same,pest or weed control at 16 g/ha,[12]; 16 g ai/ha,10%
same,pest or weed control at 31 g/ha,[12]; 31 g ai/ha,15%
same,pest or weed control at 62 g/ha,[12]; 62 g ai/ha,15%
same,pest or weed control at 125 g/ha,[12]; 125 g ai/ha,20%
same,"Corn plant response rating (crop injury, 0 = no effect, 100 = complete kill) at 16 g/ha",corn (Zea mays); 16 g ai/ha,10%
same,"Corn plant response rating (crop injury, 0 = no effect, 100 = complete kill) at 31 g/ha",corn (Zea mays); 31 g ai/ha,20%
same,"Corn plant response rating (crop injury, 0 = no effect, 100 = complete kill) at 62 g/ha",corn (Zea mays); 62 g ai/ha,10%
same,"Corn plant response rating (crop injury, 0 = no effect, 100 = complete kill) at 125 g/ha",corn (Zea mays); 125 g ai/ha,15%
same,pest or weed control at 16 g/ha,[13]; 16 g ai/ha,60%
same,pest or weed control at 31 g/ha,[13]; 31 g ai/ha,70%
same,pest or weed control at 62 g/ha,[13]; 62 g ai/ha,70%
same,pest or weed control at 125 g/ha,[13]; 125 g ai/ha,95%
same,pest or weed control at 16 g/ha,[14]; 16 g ai/ha,5%
same,pest or weed control at 31 g/ha,[14]; 31 g ai/ha,5%
same,pest or weed control at 62 g/ha,[14]; 62 g ai/ha,10%
same,pest or weed control at 125 g/ha,[14]; 125 g ai/ha,10%
same,pest or weed control at 31 g/ha,[15]; 31 g ai/ha,10%
same,pest or weed control at 62 g/ha,[15]; 62 g ai/ha,5%
same,pest or weed control at 125 g/ha,[15]; 125 g ai/ha,15%
same,plant injury at 31 g/ha,soybean (Glycine max); 31 g ai/ha,70%
same,plant injury at 62 g/ha,soybean (Glycine max); 62 g ai/ha,45%
same,plant injury at 125 g/ha,soybean (Glycine max); 125 g ai/ha,55%
same,pest or weed control at 31 g/ha,[16]; 31 g ai/ha,90%
same,pest or weed control at 62 g/ha,[16]; 62 g ai/ha,90%
same,pest or weed control at 125 g/ha,[16]; 125 g ai/ha,95%

# Source: patent US20170190671A1, “BIS(ARYL)CATECHOL DERIVATIVES AS HERBICIDES” (E I DU PONT DE NEMOURS AND COMPANY, priority 2014, published 2017)
